The test has as its system platelets. The test is described as follows: Activation of platelets by plasma protein fragment. Type of test: cell-based.

This note sets out measurements from patent US20240093151A1, “DEVICE AND METHOD FOR OBTAINING IMMUNO-STIMULATORY ANTIGEN-PRESENTING CELLS” (Transimmune AG, priority 2015, published 2024).

Ends that are not written are not given here.

As to HHLGGAKQAGDV, the “ability to activate platelets” value is listed as “able to activate platelets”.
